Reference: patent US7427503B2, “Method for transferring material in a cell system” (Eppendorf AG, priority 2000, dated 2008)

Key:
Jurkat cells [1] = experiment: Electroporation of Jurkat cells with and without trehalose in hypo-osmolar working medium; type: cell-based, human; settings: 100 mOsm
Procedure: Electroporation of Cells with and without Trehalose in a Hypo-osmolar Working Medium.
A phosphate buffer with 1.15 mM K2HPO4/KH2PO4 buffer, pH 7.2, was used as a pulse medium. KCl at a concentration of 10 mM (α=1.5−1.6 mS/cm) was added as a conducting salt. After this, trehalose at the respective concentration was added to the pulse medium. Osmolarity was adjusted to 100 mOsm by the addition of inositol, so as to obtain a hypo-osmolar solution.
Jurkat cells that are cells of a human T-lymphocytes line were used. 40 μg/ml propidium iodide, which is a membrane-impermeable DNA dye, was added as the material to be transferred.
Pulse application took place after 10 minutes of incubation prior to pulse application, in the pulse medium at room temperature (cell density: 2-3×10^6 cells/ml). Pulse duration was 20 μs.
Electroporation took place in an Eppendorf multiporator. After pulse application, the pores were left to reseal for 10 min at room temperature.
Electropermeabilisation took place at the following trehalose concentrations: 0 mM and 40 mM (α,α-trehalose).
Pulsing takes place at 4° C. or at room temperature. This can be single pulsing; however, multiple pulsing involving up to 3 pulses can at times be advantageous.

Jurkat cells [2] = experiment: Electroporation of Jurkat cells with and without trehalose in iso-osmolar working medium; type: cell-based, human; settings: 290 mOsm
Procedure: Electroporation of Cells with and without Trehalose in an Iso-osmolar Working Medium.
Essentially, the same experimental conditions as in Example 1 applied, except that the osmolarity of the pulse medium was adjusted to iso-osmolar conditions by adding inositol to 290 mOsm.
Again, α,α-trehalose was added in the following concentrations: 0 mM and 40 mM.

For OC[C@H]1O[C@H](O[C@H]2O[C@H](CO)[C@@H](O)[C@H](O)[C@H]2O)[C@H](O)[C@@H](O)[C@@H]1O [trehalose, α,α-trehalose], the propidium iodide uptake (Jurkat cells [1]; 40 mM trehalose vs 0 mM, 40 μg/ml propidium iodide, FIG. 1) was “only slightly influenced”, the “pulse efficiency (product of propidium iodide uptake and survival rate)” value (Jurkat cells [1]; 40 mM trehalose vs control without trehalose, increasing field strength, FIG. 2) was “significantly above the values of a control sample” and the survival rate (Jurkat cells [2]; 40 mM trehalose vs 0 mM, above all at high field strength, FIG. 3) was “untreated cells (0 mM, outline squares) is many times less than in the case of cells treated with 40 mM trehalose”. For the same compound, the propidium iodide uptake (Jurkat cells [2]; 40 mM trehalose vs 0 mM, FIG. 3) was “varies less markedly” and the pulse efficiency (Jurkat cells [2]; 40 mM trehalose, increasing field strength, FIG. 4) was “gradual increase in the pulse efficiency”.
